The values below come from patent publication US5955501A, “Protein kinase C modulators O” (priority 1995, dated 1999).

pEC50: −log10 of the molar value. Structures can show the parent of a compound that is named as a salt. Where two headings read alike, the source gives them in different places.

The subject of this assay is HIV. The assay is described as follows: Anti-HIV activity in HIV-infected human peripheral blood lymphocytes (supernatant viral RNA and p24 core protein). It is filed as cell-based. As to conditions: for pEC50 / inhibition at 10 µM: Human immunodeficiency virus 1, Lymphocyte; for inhibition at 10 µM: read-out: percent inhibition of viral RNA production. The protocol:
Human peripheral blood lymphocytes were isolated from the buffy coat fractions of blood donations. The lymphocytes were then stimulated with 5 μg/ml of phytohemagglutinin for 48 hours. Prior to infection with HIV, the lymphocytes were washed and resuspended in mitogen-free medium. On day 0 the cells were infected with HIV and were cultured for four days in the presence or absence of graded concentrations of 20-deoxy-20-chlorophorbol 12,13-bis[(2',4'-difluorophenyl)acetate]. On days 3 and 4 the supernatant levels of total viral RNA and viral core protein p24 were determined at each drug concentration and dose-response curves were used to determine the concentration of drug giving 50% inhibition of production of viral RNA and of p24 core protein. At four days these ED50 values were less than 100 pM for both RNA and p24.
In a manner similar to Example 111, the anti-HIV ED50 values for RNA [drug concentration is in brackets] for the following diterpenoid compounds were determined from dose-response curves or by estimation from one or more experimental drug concentrations.
In a manner similar to Example 111, the anti-HIV ED50 values for RNA [drug concentration is in brackets] for the following indolactam-type compounds were determined from dose-response curves or by estimation from one or more experimental drug concentrations, data giving percent inhibition of viral RNA production at selected concentrations appear in parentheses:
In a manner similar to Example 111, the anti-HIV ED50 values for RNA [drug concentration is in brackets] for the following diacylglycero-type compounds were determined from dose-response curves or by estimation from one or more experimental drug concentrations; data giving percent inhibition of viral RNA production at selected concentrations appear in parentheses: […]

Setting [1] is: from dose-response curves or by estimation from one or more experimental drug concentrations, read-out: anti-HIV ED50 for RNA.

Turning to `CCCSCC1=C[C@H]2[C@@H]3C(C)(C)[C@]3(OC(=O)Cc3ccc(F)cc3F)[C@H](OC(=O)Cc3ccc(F)cc3F)[C@@H](C)[C@]2(O)[C@@H]2C=C(C)C(=O)[C@@]2(O)C1` [20-deoxy-20-propylthiophorbol 12,13-bis[(2',4'-difluorophenyl)acetate]], the pEC50 under setting [1] is 8.00.
For the compound `CC1=C[C@H]2[C@@]3(O)[C@H](C)[C@@H](OC(=O)Cc4ccc(F)cc4F)[C@]4(OC(=O)Cc5ccc(F)cc5F)[C@H]([C@@H]3C=C(CCl)C[C@]2(O)C1=O)C4(C)C` [20-deoxy-20-chlorophorbol 12,13-bis[(2',4'-difluorophenyl)acetate]], the pEC50 was more than 10.00 (96 h, supernatant total viral RNA, at four days, read-out: ED50, concentration of drug giving 50% inhibition of production of viral RNA) and more than 10.00 (96 h, supernatant viral core protein p24, at four days, read-out: ED50, concentration of drug giving 50% inhibition of production of p24 core protein).
Regarding `CC1=C[C@H]2[C@@]3(O)[C@H](C)[C@@H](OC(=O)Cc4ccc(F)cc4F)[C@]4(OC(=O)Cc5ccc(F)cc5F)[C@H]([C@@H]3C=C(CBr)C[C@]2(O)C1=O)C4(C)C` [20-deoxy-20-bromophorbol 12,13-bis[(2',4'-difluorophenyl)acetate]], the pEC50 under setting [1] was more than 9.00.
On the same count and under the same terms, under `CC1=C[C@H]2[C@@]3(O)[C@H](C)[C@@H](OC(=O)Cc4ccc(F)cc4F)[C@]4(OC(=O)Cc5ccc(F)cc5F)[C@H]([C@@H]3C=C(CSCCC(=O)O)C[C@]2(O)C1=O)C4(C)C` [20-deoxy-20-(2'-carboxyethylthio)phorbol 12,13-bis(2',4'-difluorophenylacetate)] stands 5.35; under `CCCCCCCCCCCCCC(=O)O[C@@H]1[C@@H](C)[C@@]2(O)[C@@H](C=C(CS(=O)(=O)CCO)C[C@]3(O)C(=O)C(C)=C[C@@H]23)[C@@H]2C(C)(C)[C@]12OC(C)=O` [20-deoxy-20-(2'-hydroxyethylsulfonyl)phorbol 12-myristate 13-acetate], 6.30; under `CC1=C[C@H]2[C@@]3(O)[C@H](C)[C@@H](OC(=O)Cc4ccc(F)cc4F)[C@]4(OC(=O)Cc5ccc(F)cc5F)[C@H]([C@@H]3C=C(CN)C[C@]2(O)C1=O)C4(C)C` [20-deoxy-20-aminophorbol 12,13-bis[(2',4'-difluorophenyl)acetate]], 7.00.
On the same count and under the same terms, under `CC1=C[C@H]2[C@@]3(O)[C@H](C)[C@@H](OC(=O)Cc4ccc(F)cc4F)[C@]4(OC(=O)Cc5ccc(F)cc5F)[C@H]([C@@H]3C=C(CSCCS)C[C@]2(O)C1=O)C4(C)C` [20-deoxy-20-(2'-mercaptoethylthio)phorbol 12,13-bis[(2',4'-difluorophenyl)acetate]] stands 7.30; under `COC(=O)C1=C[C@H]2[C@@H]3C(C)(C)[C@]3(OC(=O)Cc3ccc(F)cc3F)[C@H](OC(=O)Cc3ccc(F)cc3F)[C@@H](C)[C@]2(O)[C@@H]2C=C(C)C(=O)[C@@]2(O)C1` [6-deshydroxymethyl-6-methoxycarbonylphorbol 12,13-bis[(2',4'-difluorophenyl)acetate]], 5.80.
The same measure, in the same setting: to `CCCCCCCCCCCCCC(=O)O[C@@H]1[C@@H](C)[C@@]2(O)[C@@H](C=C(C[S+]([O-])CCO)C[C@]3(O)C(=O)C(C)=C[C@@H]23)[C@@H]2C(C)(C)[C@]12OC(C)=O` (some centres unmarked) [20-deoxy-20-(2'-hydroxyethylsulfinyl)phorbol 12-myristate 13-acetate] belongs 5.96.
Regarding `CC(C)[C@H]1C(=O)N[C@H](CSCCO)Cc2c[nH]c3cccc(c23)N1C` [14-deoxy-14-(2'-hydroxyethylthio)indolactam V], the pEC50 under setting [1] was 6.00.
As to `CCC[S+]([O-])CC1=C[C@H]2[C@@H]3C(C)(C)[C@]3(OC(=O)Cc3ccc(F)cc3F)[C@H](OC(=O)Cc3ccc(F)cc3F)[C@@H](C)[C@]2(O)[C@@H]2C=C(C)C(=O)[C@@]2(O)C1` (some centres unmarked) [20-deoxy-20-(propylsulfinyl)phorbol 12,13-bis[(2',4'-difluorophenyl)acetate]], the pEC50 under setting [1] is 6.30.
For the compound `CCCCCCCCCCCCCC(=O)O[C@@H]1[C@@H](C)[C@@]2(O)[C@@H](C=C(COC(=O)Nc3ccc(F)c([N+](=O)[O-])c3)C[C@]3(O)C(=O)C(C)=C[C@@H]23)[C@@H]2C(C)(C)[C@]12OC(C)=O` [phorbol 12-myristate 13-acetate 20-(4'-fluoro-3'-nitrophenyl)carbamate], under setting [1], the pEC50 was 5.40.
In the case of “9-deshydroxymethyl-9-ethoxycarbonylindolactam V”, the “percent inhibition of viral RNA production” value (at 10 μM) stood at 47%.
For the compound `CC(C)C1C(=O)NC(C(=O)OCC(O)CO)Cc2c[nH]c3cccc(c23)N1C` (centres unmarked) [9-deshydroxymethyl-9-(2',3'-dihydroxy)propyloxycarbonylindolactam V], where the note is “at 10 μM”, the “percent inhibition of viral RNA production” value was found to be 20%.
Broadly, the inhibition is the percentage by which the read-out fell short of the control. Consider `CNC(=O)OC[C@@H]1Cc2c[nH]c3cccc(c23)N(C)[C@@H](C(C)C)C(=O)N1` (relative stereo) [rac-14-O-(N-methyl)carbamoylindolactam V], for which the inhibition at 10 µM was 52%.
Take `CC1=C[C@H]2[C@@]3(O)[C@H](C)[C@@H](OC(=O)Cc4ccc(F)cc4F)[C@]4(OC(=O)Cc5ccc(F)cc5F)[C@H]([C@@H]3C=C(C[S+]([O-])CCO)C[C@]2(O)C1=O)C4(C)C` (some centres unmarked) [20-deoxy-20-(2'-hydroxyethylsulfinyl)phorbol 12,13-bis[(2',4'-difluorophenyl)acetate]]: the pEC50 under setting [1] is 5.80.
Regarding `CNC(=O)OC[C@@H]1Cc2cn(CC[P+](c3ccccc3)(c3ccccc3)c3ccccc3)c3cccc(c23)N(C)[C@@H](C(C)C)C(=O)N1` (relative stereo) [rac-14-O-(N-methyl)carbamoyl-1-N-(2'-triphenylphosphonium)ethylindolactam V, methanesulfonate salt], the inhibition at 10 µM came to 82%.
Regarding `CC1=C[C@H]2[C@@]3(O)[C@H](C)[C@@H](OC(=O)Cc4ccc(F)cc4F)[C@]4(OC(=O)Cc5ccc(F)cc5F)[C@H]([C@@H]3C=C(CSCCO)C[C@]2(O)C1=O)C4(C)C` [20-deoxy-20-(2'-hydroxyethylthio)phorbol 12,13-bis[(2',4'-difluorophenyl)acetate]], the pEC50 under setting [1] is 6.00.
Regarding `O=C1CCCCCCCCCCCCCCCCCCC(=O)OC(CSCCO)CO1` (centres unmarked) [3-[(2'-hydroxyethylthio)methyl]-1,6-dioxo-2,5-dioxacyclotetracosane], the pEC50 under setting [1] is 8.00.
With `CC1=C[C@H]2[C@@]3(O)[C@H](C)[C@@H](OC(=O)Cc4ccc(F)cc4F)[C@]4(OC(=O)Cc5ccc(F)cc5F)[C@H]([C@@H]3C=C(C=NO)C[C@]2(O)C1=NO)C4(C)C` [20-deoxy-3-deoxo-3,20-bis(hydroximino)phorbol 12,13-bis[(2',4'-difluorophenyl)acetate]], the pEC50 under setting [1] was 7.35.
Still for that read-out and setting: to `CC1=C[C@H]2[C@@]3(O)[C@H](C)[C@@H](OC(=O)Cc4ccc(F)cc4F)[C@]4(OC(=O)Cc5ccc(F)cc5F)[C@H]([C@@H]3C=C(C#N)C[C@]2(O)C1=O)C4(C)C` [6-deshydroxymethyl-6-cyanophorbol 12,13-bis[(2',4'-difluorophenyl)acetate]] belongs more than 7.00; to `CC1=C[C@H]2[C@@]3(O)[C@H](C)[C@@H](OC(=O)Cc4ccc(F)cc4F)[C@]4(OC(=O)Cc5ccc(F)cc5F)[C@H]([C@@H]3C=C(COC(=O)Oc3ccc(O)cc3)C[C@]2(O)C1=O)C4(C)C` [20-O-(4'-hydroxyphenoxy)carbonylphorbol 12,13-bis[(2',4'-difluorophenyl)acetate]], more than 8.00.
In the case of `CCCCCCCCc1ccc2c3c(c[nH]c13)C[C@@H](COC(=O)NC)NC(=O)[C@H](C(C)C)N2C` [14-O-(N-Methyl)carbamoyl-7-octyl-(9S,12S)-indolactam V], the inhibition at 10 µM stood at 87%.
On to `CCOC(=O)[C@@H]1Cc2cn(CO)c3cccc(c23)N(C)[C@@H](C(C)C)C(=O)N1` [1-N-hydroxymethyl-9-deshydroxymethyl-9-ethoxycarbonylindolactam V], for which, under “at 10 μM”, the inhibition at 10 µM turned out to be 31%.
As for `CC1=C[C@H]2[C@@]3(O)[C@H](C)[C@@H](OC(=O)Cc4c(F)c(F)c(F)c(F)c4F)[C@]4(OC(=O)Cc5c(F)c(F)c(F)c(F)c5F)[C@H]([C@@H]3C=C(CF)C[C@]2(O)C1=O)C4(C)C` [20-deoxy-20-fluorophorbol 12,13-bis[(pentafluorophenyl)acetate]], the pEC50 under setting [1] is 9.00.
Same read-out and setting: to `CC1=C[C@H]2[C@@]3(O)[C@H](C)[C@@H](OC(=O)Cc4ccc(F)cc4F)[C@]4(OC(=O)Cc5ccc(F)cc5F)[C@H]([C@@H]3C=C(CSCC(O)CO)C[C@]2(O)C1=O)C4(C)C` (some centres unmarked) [20-deoxy-20-(2',3'-dihydroxypropylthio)phorbol 12,13-bis[(2',4'-difluorophenyl)acetate]] belongs 5.52.
Turning to `CC1=C[C@H]2[C@@]3(O)[C@H](C)[C@@H](OC(=O)Cc4ccc(F)cc4F)[C@]4(OC(=O)Cc5ccc(F)cc5F)[C@H]([C@@H]3C=C(CS(=O)(=O)CCO)C[C@]2(O)C1=O)C4(C)C` [20-deoxy-20-(2'-hydroxyethylsulfonyl)phorbol 12,13-bis[(2',4'-difluorophenyl)acetate]], the pEC50 under setting [1] is 5.30.
As to `CCCCCCCCc1ccc2c3c(c[nH]c13)C[C@@H](CSCCO)NC(=O)[C@H](C(C)C)N2C` [14-deoxy-14-(2'-hydroxyethylthio)-7-octyl-(9S,12S)-indolactam V], the pEC50 under setting [1] is 7.00.
